Experimental data published in the NIST ThermoML archive (doi:10.1016/j.fluid.2018.04.025).

Experiment: xn = mol fraction of the nth substance listed
Settings: 101 kPa, Liquid; for viscosity: Falling or rolling sphere viscometry; for speed of sound: Frequency=3 MHz, Sing-around technique in a fixed-path interferometer; for mass density: Vibrating tube method

CCCC[n+]1ccn(C)c1.O=S(=O)([N-]S(=O)(=O)C(F)(F)F)C(F)(F)F + CCCCO
Settings | mass density [kg/m3] | speed of sound [m/s] | viscosity [mPa·s]
298.15 K, x1 = 0.1041 | 977.145 | 1204.1 | 4.37
298.15 K, x1 = 0.203 | 1088.59 | 1195.1 | 6.8
298.15 K, x1 = 0.3026 | 1170.97 | 1196.1 | 9.05
298.15 K, x1 = 0.409 | 1238.03 | 1200.2 | 11.83
298.15 K, x1 = 0.4987 | 1282.27 | 1204.3 | 14.91
298.15 K, x1 = 0.603 | 1325.15 | 1209.3 | 19.73
298.15 K, x1 = 0.6973 | 1357.81 | 1214.1 | 24.95
298.15 K, x1 = 0.809 | 1390.36 | 1219.2 | 32.11
298.15 K, x1 = 0.9104 | 1415.6 | 1223 | 40.26
298.15 K, x1 = 1 | 1436.02 | 1227.3 | 51.22
303.15 K, x1 = 0.1041 | 972.795 | 1189.7 | 3.85
303.15 K, x1 = 0.203 | 1084 | 1181.7 | 5.85
303.15 K, x1 = 0.3026 | 1166.33 | 1183.4 | 7.68
303.15 K, x1 = 0.409 | 1233.48 | 1188.1 | 9.93
303.15 K, x1 = 0.4987 | 1277.72 | 1192.4 | 12.53
303.15 K, x1 = 0.603 | 1320.71 | 1197.7 | 16.62
303.15 K, x1 = 0.6973 | 1353.3 | 1202.5 | 20.95
303.15 K, x1 = 0.809 | 1385.78 | 1207.8 | 26.73
303.15 K, x1 = 0.9104 | 1411.02 | 1211.9 | 33.01
303.15 K, x1 = 1 | 1431.22 | 1216.3 | 41.91
308.15 K, x1 = 0.1041 | 968.785 | 1175.3 | 3.27
308.15 K, x1 = 0.203 | 1079.65 | 1168.5 | 5.03
308.15 K, x1 = 0.3026 | 1161.89 | 1170.8 | 6.62
308.15 K, x1 = 0.409 | 1228.96 | 1176 | 8.51
308.15 K, x1 = 0.4987 | 1273.42 | 1180.7 | 10.71
308.15 K, x1 = 0.603 | 1316.29 | 1186.2 | 14.13
308.15 K, x1 = 0.6973 | 1348.83 | 1191.2 | 17.82
308.15 K, x1 = 0.809 | 1381.24 | 1196.7 | 22.61
308.15 K, x1 = 0.9104 | 1406.45 | 1200.9 | 27.62
308.15 K, x1 = 1 | 1426.43 | 1205.5 | 34.63
313.15 K, x1 = 0.1041 | 964.582 | 1161 | 2.87
313.15 K, x1 = 0.203 | 1075.17 | 1155.3 | 4.39
313.15 K, x1 = 0.3026 | 1157.28 | 1158.3 | 5.75
313.15 K, x1 = 0.409 | 1224.36 | 1163.9 | 7.36
313.15 K, x1 = 0.4987 | 1268.95 | 1168.9 | 9.24
313.15 K, x1 = 0.603 | 1311.81 | 1174.7 | 12.24
313.15 K, x1 = 0.6973 | 1344.2 | 1180 | 15.31
313.15 K, x1 = 0.809 | 1376.73 | 1185.6 | 19.32
313.15 K, x1 = 0.9104 | 1401.97 | 1189.9 | 23.41
313.15 K, x1 = 1 | 1421.64 | 1194.7 | 28.93
318.15 K, x1 = 0.1041 | 960.208 | 1146.9 | 2.53
318.15 K, x1 = 0.203 | 1070.62 | 1142.3 | 3.86
318.15 K, x1 = 0.3026 | 1152.59 | 1145.8 | 5.04
318.15 K, x1 = 0.409 | 1219.7 | 1151.9 | 6.42
318.15 K, x1 = 0.4987 | 1264.59 | 1157.2 | 8.04
318.15 K, x1 = 0.603 | 1307.37 | 1163.4 | 10.61
318.15 K, x1 = 0.6973 | 1339.66 | 1168.8 | 13.32
318.15 K, x1 = 0.809 | 1372.24 | 1174.6 | 16.64
318.15 K, x1 = 0.9104 | 1397.35 | 1179.1 | 19.93
318.15 K, x1 = 1 | 1416.84 | 1184 | 24.63
323.15 K, x1 = 0.1041 | 955.94 | 1132.9 | 2.24
323.15 K, x1 = 0.203 | 1065.98 | 1129.4 | 3.42
323.15 K, x1 = 0.3026 | 1147.85 | 1133.5 | 4.45
323.15 K, x1 = 0.409 | 1214.91 | 1140 | 5.65
323.15 K, x1 = 0.4987 | 1259.97 | 1145.7 | 7.07
323.15 K, x1 = 0.603 | 1302.8 | 1152.1 | 9.29
323.15 K, x1 = 0.6973 | 1335.11 | 1157.8 | 11.74
323.15 K, x1 = 0.809 | 1367.53 | 1163.8 | 14.53
323.15 K, x1 = 0.9104 | 1392.5 | 1168.4 | 17.32
323.15 K, x1 = 1 | 1411.89 | 1173.5 | 21.11

CCCC[n+]1ccn(C)c1.O=S(=O)([N-]S(=O)(=O)C(F)(F)F)C(F)(F)F + CCCO
Settings | mass density [kg/m3] | speed of sound [m/s] | viscosity [mPa·s]
298.15 K, x1 = 0.1034 | 997.935 | 1181.5 | 3.73
298.15 K, x1 = 0.203 | 1117.34 | 1181.2 | 5.98
298.15 K, x1 = 0.3043 | 1200.89 | 1188.3 | 8.11
298.15 K, x1 = 0.409 | 1263.74 | 1196.8 | 10.82
298.15 K, x1 = 0.5068 | 1308.36 | 1203 | 14.12
298.15 K, x1 = 0.603 | 1343.44 | 1209.4 | 19.03
298.15 K, x1 = 0.6981 | 1371.86 | 1214.5 | 24.41
298.15 K, x1 = 0.809 | 1399.1 | 1219.9 | 31.43
298.15 K, x1 = 0.8925 | 1416.56 | 1223.7 | 39.52
298.15 K, x1 = 1 | 1436.02 | 1227.3 | 51.22
303.15 K, x1 = 0.1034 | 993.513 | 1167.2 | 3.24
303.15 K, x1 = 0.203 | 1112.85 | 1168 | 5.16
303.15 K, x1 = 0.3043 | 1196.18 | 1175.7 | 6.94
303.15 K, x1 = 0.409 | 1259 | 1184.7 | 9.22
303.15 K, x1 = 0.5068 | 1303.62 | 1191.2 | 11.91
303.15 K, x1 = 0.603 | 1338.71 | 1197.8 | 16.24
303.15 K, x1 = 0.6981 | 1367.11 | 1203.2 | 20.52
303.15 K, x1 = 0.809 | 1394.38 | 1208.6 | 26.11
303.15 K, x1 = 0.8925 | 1411.81 | 1212.6 | 32.53
303.15 K, x1 = 1 | 1431.22 | 1216.3 | 41.91
308.15 K, x1 = 0.1034 | 989.047 | 1152.9 | 2.85
308.15 K, x1 = 0.203 | 1108.26 | 1154.8 | 4.5
308.15 K, x1 = 0.3043 | 1191.48 | 1163.1 | 6.01
308.15 K, x1 = 0.409 | 1254.22 | 1172.6 | 7.94
308.15 K, x1 = 0.5068 | 1298.84 | 1179.5 | 10.21
308.15 K, x1 = 0.603 | 1333.94 | 1186.3 | 13.72
308.15 K, x1 = 0.6981 | 1362.35 | 1191.8 | 17.43
308.15 K, x1 = 0.809 | 1389.63 | 1197.5 | 22.13
308.15 K, x1 = 0.8925 | 1407.06 | 1201.6 | 27.21
308.15 K, x1 = 1 | 1426.43 | 1205.5 | 34.63
313.15 K, x1 = 0.1034 | 984.572 | 1138.7 | 2.53
313.15 K, x1 = 0.203 | 1103.58 | 1141.7 | 3.95
313.15 K, x1 = 0.3043 | 1186.72 | 1150.7 | 5.25
313.15 K, x1 = 0.409 | 1249.43 | 1160.6 | 6.9
313.15 K, x1 = 0.5068 | 1294.03 | 1167.8 | 8.85
313.15 K, x1 = 0.603 | 1329.15 | 1175 | 11.93
313.15 K, x1 = 0.6981 | 1357.57 | 1180.7 | 14.94
313.15 K, x1 = 0.809 | 1384.85 | 1186.4 | 18.72
313.15 K, x1 = 0.8925 | 1402.29 | 1190.7 | 22.94
313.15 K, x1 = 1 | 1421.64 | 1194.7 | 28.93
318.15 K, x1 = 0.1034 | 979.997 | 1124.5 | 2.27
318.15 K, x1 = 0.203 | 1098.85 | 1128.7 | 3.69
318.15 K, x1 = 0.3043 | 1181.93 | 1138.3 | 4.84
318.15 K, x1 = 0.409 | 1244.67 | 1148.8 | 6.15
318.15 K, x1 = 0.5068 | 1289.19 | 1156.3 | 7.74
318.15 K, x1 = 0.603 | 1324.35 | 1163.7 | 10.34
318.15 K, x1 = 0.6981 | 1352.76 | 1169.5 | 13.01
318.15 K, x1 = 0.809 | 1380.05 | 1175.5 | 16.35
318.15 K, x1 = 0.8925 | 1397.5 | 1180 | 19.74
318.15 K, x1 = 1 | 1416.84 | 1184 | 24.63
323.15 K, x1 = 0.1034 | 975.381 | 1110.5 | 2.03
323.15 K, x1 = 0.203 | 1094.03 | 1115.8 | 2.98
323.15 K, x1 = 0.3043 | 1177.02 | 1126 | 3.93
323.15 K, x1 = 0.409 | 1239.67 | 1137 | 5.25
323.15 K, x1 = 0.5068 | 1284.24 | 1144.8 | 6.82
323.15 K, x1 = 0.603 | 1319.4 | 1152.6 | 9.13
323.15 K, x1 = 0.6981 | 1347.82 | 1158.6 | 11.42
323.15 K, x1 = 0.809 | 1375.13 | 1164.6 | 14.23
323.15 K, x1 = 0.8925 | 1392.58 | 1169.3 | 17.01
323.15 K, x1 = 1 | 1411.89 | 1173.5 | 21.11
